Source: US10493077B2, “Fused imidazo-piperidine JAK inhibitor compound” (THERAVANCE BIOPHARMA R&D IP, LLC, priority 2017, dated 2019)
Where two headings read alike, the source gives them in different places.

What was measured:
IL-6 induced pSTAT3 = assay: Pharmacodynamic assay: inhibition of IL6-induced pSTAT3 in rats; type: in vivo, rat; settings: 50 μg intravitreal, suspension formulation, 3 day pre-treatment prior to IL-6 challenge, female Lewis rats
Method: The ability of a single intravitreal administration of test compound to inhibit IL-6 induced pSTAT3 was measured in rat retina/choroid homogenates.
A suspension formulation was prepared by combining compound 1 of Example 2, with 0.5% hydroxypropyl methylcellulose (HPMC E5 LV), 0.02% Tween 80, and 9 mg/mL sodium chloride in purified water to attain a target concentration of 10 mg/mL.
Female Lewis rats were intravitreally (IVT) dosed (5 μL per eye) with the suspension formulation. Three days later, IL-6 (Peprotech; 0.1 mg/mL; 5 μL per eye) or vehicle was intravitreally administered to induce pSTAT3. Ocular tissues were dissected one hour after the second IVT injection with IL-6. The retina/choroid tissues were homogenized and pSTAT3 levels were measured using an ELISA (Cell Signaling Technology). The percent inhibition of IL-6-induced pSTAT3 was calculated in comparison to the vehicle/vehicle and vehicle/IL-6 groups. Inhibition of greater than 100% reflects a reduction of pSTAT3 levels to below those observed in the vehicle/vehicle group.

SLK = target: T1, SLK (Homo sapiens, UniProt Q9H2G2); assay: Kinome screen, SLK; type: binding; settings: screened at 1 μM
T1 construct: made in house; host or cells: T7 phage in E. coli (BL21-derived) or HEK-293
T1 sequence (Q9H2G2 whole entry): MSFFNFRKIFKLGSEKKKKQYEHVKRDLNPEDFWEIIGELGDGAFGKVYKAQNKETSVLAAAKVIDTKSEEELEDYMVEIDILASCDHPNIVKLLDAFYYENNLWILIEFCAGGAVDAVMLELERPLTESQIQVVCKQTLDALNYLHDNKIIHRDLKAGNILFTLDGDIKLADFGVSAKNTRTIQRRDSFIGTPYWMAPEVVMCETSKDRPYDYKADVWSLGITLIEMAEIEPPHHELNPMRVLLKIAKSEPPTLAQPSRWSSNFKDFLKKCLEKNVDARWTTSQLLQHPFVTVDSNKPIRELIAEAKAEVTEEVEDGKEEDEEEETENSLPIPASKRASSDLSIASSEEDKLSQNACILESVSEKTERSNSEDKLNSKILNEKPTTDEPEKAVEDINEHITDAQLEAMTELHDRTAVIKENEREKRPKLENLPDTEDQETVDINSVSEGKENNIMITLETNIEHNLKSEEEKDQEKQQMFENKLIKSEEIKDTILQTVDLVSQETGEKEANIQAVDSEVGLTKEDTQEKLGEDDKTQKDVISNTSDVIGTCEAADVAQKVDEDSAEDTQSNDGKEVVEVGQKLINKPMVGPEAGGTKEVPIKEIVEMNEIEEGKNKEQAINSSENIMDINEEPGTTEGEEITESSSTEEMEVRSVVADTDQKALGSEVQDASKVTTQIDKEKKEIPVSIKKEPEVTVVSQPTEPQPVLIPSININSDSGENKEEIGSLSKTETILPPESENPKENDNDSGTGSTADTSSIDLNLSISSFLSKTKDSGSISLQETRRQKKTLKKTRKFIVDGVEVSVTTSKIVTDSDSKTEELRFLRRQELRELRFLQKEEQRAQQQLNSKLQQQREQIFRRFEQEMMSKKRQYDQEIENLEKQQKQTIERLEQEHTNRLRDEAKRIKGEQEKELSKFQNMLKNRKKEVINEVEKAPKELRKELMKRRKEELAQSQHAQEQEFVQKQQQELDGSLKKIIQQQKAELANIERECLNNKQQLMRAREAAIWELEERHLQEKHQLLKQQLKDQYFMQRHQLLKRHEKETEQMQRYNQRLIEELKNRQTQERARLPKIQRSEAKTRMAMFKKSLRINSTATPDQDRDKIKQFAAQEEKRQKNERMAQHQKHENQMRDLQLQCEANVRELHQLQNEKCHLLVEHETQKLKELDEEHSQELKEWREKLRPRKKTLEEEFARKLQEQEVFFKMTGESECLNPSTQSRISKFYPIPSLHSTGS
Method: (§1) Kinase-tagged T7 phage strains were grown in parallel in 24-well blocks in an E. coli host derived from the BL21 strain. E. coli were grown to log-phase and infected with T7 phage from a frozen stock (multiplicity of infection=0.4) and incubated with shaking at 32° C. until lysis (90-150 minutes). The lysates were centrifuged (6,000×g) and filtered (0.2 μm) to remove cell debris. The remaining kinases were produced in HEK-293 cells and subsequently tagged with DNA for qPCR detection.
(§2) Streptavidin-coated magnetic beads were treated with biotinylated small molecule ligands for 30 minutes at room temperature to generate affinity resins for kinase assays. The liganded beads were blocked with excess biotin and washed with blocking buffer (SeaBlock (Pierce), 1% BSA, 0.05% Tween 20, 1 mM DTT) to remove unbound ligand and to reduce non-specific phage binding. […] Test compounds were prepared as 40× stocks in 100% DMSO and directly diluted into the assay. All reactions were performed in polypropylene 384-well plates in a final volume of 0.04 ml. […] The beads were then re-suspended in elution buffer (1×PBS, 0.05% Tween 20, 0.5 μM non-biotinylated affinity ligand) and incubated at room temperature with shaking for 30 minutes. The kinase concentration in the eluates was measured by qPCR.

SRC = target: T2, SRC (Homo sapiens, UniProt P12931); assay: Kinome screen, SRC; type: binding; settings: screened at 1 μM
T2 construct: made in house; host or cells: T7 phage in E. coli (BL21-derived) or HEK-293
T2 sequence (P12931 whole entry): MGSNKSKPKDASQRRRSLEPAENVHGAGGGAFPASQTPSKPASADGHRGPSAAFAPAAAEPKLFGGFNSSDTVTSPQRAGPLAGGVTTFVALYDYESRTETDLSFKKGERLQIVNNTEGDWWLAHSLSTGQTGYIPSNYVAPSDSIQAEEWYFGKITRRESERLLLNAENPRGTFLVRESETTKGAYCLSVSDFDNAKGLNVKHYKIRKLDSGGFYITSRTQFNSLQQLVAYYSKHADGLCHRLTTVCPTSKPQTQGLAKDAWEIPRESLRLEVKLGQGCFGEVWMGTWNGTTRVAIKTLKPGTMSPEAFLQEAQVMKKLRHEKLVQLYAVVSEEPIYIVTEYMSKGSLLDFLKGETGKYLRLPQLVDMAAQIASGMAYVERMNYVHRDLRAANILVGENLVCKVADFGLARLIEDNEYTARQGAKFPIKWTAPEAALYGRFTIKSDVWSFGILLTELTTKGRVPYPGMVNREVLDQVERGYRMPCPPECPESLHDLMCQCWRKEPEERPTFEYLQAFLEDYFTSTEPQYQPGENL
Method: as §1, §2

ALK = target: T3, ALK (Homo sapiens, UniProt Q9UM73); assay: Kinome screen, ALK; type: binding; settings: screened at 1 μM
T3 construct: made in house; host or cells: T7 phage in E. coli (BL21-derived) or HEK-293
T3 sequence (Q9UM73 19-1620): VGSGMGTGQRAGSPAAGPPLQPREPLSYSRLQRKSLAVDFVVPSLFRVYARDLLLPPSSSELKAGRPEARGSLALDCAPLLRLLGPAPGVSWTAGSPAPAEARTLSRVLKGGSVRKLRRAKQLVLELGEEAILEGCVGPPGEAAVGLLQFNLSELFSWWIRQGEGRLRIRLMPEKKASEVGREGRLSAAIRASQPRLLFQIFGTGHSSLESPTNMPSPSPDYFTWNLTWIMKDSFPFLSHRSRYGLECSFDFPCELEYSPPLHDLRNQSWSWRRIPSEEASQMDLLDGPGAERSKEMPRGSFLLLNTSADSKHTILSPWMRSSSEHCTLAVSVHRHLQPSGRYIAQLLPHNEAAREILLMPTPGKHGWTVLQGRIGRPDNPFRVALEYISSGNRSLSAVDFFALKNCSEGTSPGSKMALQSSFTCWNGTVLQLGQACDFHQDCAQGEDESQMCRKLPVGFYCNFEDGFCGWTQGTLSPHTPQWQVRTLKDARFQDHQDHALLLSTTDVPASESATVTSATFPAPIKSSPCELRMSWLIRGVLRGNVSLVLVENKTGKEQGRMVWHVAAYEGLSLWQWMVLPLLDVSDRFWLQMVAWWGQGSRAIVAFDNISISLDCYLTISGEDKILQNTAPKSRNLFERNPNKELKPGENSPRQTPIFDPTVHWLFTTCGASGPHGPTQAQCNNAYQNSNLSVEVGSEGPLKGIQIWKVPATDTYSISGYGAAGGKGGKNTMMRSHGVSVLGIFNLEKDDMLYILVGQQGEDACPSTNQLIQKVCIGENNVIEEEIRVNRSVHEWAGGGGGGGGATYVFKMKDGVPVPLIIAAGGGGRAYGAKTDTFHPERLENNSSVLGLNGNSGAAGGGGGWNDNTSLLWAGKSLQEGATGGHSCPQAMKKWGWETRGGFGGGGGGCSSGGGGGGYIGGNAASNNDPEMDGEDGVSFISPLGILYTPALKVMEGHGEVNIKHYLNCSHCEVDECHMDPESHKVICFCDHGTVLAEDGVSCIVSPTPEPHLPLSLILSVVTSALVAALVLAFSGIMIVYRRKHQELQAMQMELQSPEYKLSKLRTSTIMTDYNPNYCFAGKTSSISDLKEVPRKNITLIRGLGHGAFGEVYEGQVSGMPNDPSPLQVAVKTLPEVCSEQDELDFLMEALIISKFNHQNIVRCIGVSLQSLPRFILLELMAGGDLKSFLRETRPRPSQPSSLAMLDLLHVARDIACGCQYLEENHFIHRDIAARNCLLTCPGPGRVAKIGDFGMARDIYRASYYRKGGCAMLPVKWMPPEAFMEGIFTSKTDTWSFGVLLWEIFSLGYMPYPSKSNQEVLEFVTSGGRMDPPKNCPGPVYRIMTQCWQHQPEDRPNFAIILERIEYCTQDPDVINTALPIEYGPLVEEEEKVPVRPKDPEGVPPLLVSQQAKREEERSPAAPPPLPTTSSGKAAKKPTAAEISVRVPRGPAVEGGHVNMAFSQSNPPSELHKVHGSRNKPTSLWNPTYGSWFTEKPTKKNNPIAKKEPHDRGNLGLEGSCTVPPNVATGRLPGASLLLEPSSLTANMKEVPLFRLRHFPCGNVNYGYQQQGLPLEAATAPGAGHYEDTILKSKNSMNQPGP
Method: as §1, §2

GSK3B = target: T4, GSK3B (Homo sapiens, UniProt P49841); assay: Kinome screen, GSK3B; type: binding; settings: screened at 1 μM
T4 construct: made in house; host or cells: T7 phage in E. coli (BL21-derived) or HEK-293
T4 sequence (P49841 whole entry): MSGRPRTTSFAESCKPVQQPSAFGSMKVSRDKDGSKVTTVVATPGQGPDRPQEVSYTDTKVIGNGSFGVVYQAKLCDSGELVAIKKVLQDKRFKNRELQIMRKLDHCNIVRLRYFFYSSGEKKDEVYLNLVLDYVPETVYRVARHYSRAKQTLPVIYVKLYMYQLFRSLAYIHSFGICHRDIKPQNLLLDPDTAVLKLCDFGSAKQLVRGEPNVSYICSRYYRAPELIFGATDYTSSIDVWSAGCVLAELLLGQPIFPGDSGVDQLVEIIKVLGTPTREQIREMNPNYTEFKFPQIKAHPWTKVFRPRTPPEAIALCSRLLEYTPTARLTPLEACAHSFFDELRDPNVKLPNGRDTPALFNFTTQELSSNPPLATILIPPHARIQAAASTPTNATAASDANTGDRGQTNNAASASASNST
Method: as §1, §2

PLK4 = target: T5, PLK4 (Homo sapiens, UniProt O00444); assay: Kinome screen, PLK4; type: binding; settings: screened at 1 μM
T5 construct: made in house; host or cells: T7 phage in E. coli (BL21-derived) or HEK-293
T5 sequence (O00444 whole entry): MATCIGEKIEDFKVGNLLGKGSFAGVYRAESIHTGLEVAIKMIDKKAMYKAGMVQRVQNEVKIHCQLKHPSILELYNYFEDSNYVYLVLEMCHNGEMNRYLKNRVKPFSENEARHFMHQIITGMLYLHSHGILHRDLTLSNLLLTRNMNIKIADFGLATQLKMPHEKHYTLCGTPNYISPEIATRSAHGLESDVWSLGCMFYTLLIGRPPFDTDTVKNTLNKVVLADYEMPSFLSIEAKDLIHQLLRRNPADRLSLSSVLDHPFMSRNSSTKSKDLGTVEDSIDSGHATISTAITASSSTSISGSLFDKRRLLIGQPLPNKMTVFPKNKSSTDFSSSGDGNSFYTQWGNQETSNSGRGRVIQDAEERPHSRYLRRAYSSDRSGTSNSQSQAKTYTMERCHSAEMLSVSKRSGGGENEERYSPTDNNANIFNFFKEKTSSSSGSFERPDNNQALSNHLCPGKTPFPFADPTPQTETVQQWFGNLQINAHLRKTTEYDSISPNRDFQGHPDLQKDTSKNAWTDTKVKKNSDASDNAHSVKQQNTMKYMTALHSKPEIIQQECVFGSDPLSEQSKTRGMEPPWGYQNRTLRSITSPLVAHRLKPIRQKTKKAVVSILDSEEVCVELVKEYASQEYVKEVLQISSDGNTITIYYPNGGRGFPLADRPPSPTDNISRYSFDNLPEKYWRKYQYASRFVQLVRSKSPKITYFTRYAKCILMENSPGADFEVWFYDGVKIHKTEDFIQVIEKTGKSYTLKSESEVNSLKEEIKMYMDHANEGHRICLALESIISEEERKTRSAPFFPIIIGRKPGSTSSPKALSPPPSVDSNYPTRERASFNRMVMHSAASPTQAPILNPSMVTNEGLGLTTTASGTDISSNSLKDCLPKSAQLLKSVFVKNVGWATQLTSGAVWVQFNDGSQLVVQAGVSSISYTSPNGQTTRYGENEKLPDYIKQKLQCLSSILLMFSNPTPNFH
Method: as §1, §2

[1] = test system: IL-13 induced STAT6 phosphorylation in BEAS-2B human lung epithelial cells; assay: Cellular JAK potency assay: inhibition of IL-13 (AlphaScreen, BEAS-2B); type: cell-based
Method: The AlphaScreen JAK1 cellular potency assay was carried out by measuring interleukin-13 (IL-13, R&D Systems) induced STAT6 phosphorylation in BEAS-2B human lung epithelial cells (ATCC). The anti-STAT6 antibody (Cell Signaling Technologies) was conjugated to AlphaScreen acceptor beads (Perkin Elmer), while the anti-pSTAT6 (pTyr641) antibody (Cell Signaling Technologies) was biotinylated using EZ-Link Sulfo-NHS-Biotin (Thermo Scientific).
BEAS-2B cells were grown at 37° C. in a 5% CO2 humidified incubator in 50% DMEM/50% F-12 medium (Life Technologies) supplemented with 10% FBS (Hyclone), 100 U/mL penicillin, 100 μg/mL streptomycin (Life Technologies), and 2 mM GlutaMAX (Life Technologies). On day 1 of the assay, cells were seeded at a 7,500 cells/well density in white poly-D-lysine-coated 384-well plates (Corning) with 25 μL medium, and were allowed to adhere overnight in the incubator. […] After a minimum of 2 h incubation, the assay plates were read on the EnVision plate reader. AlphaScreen luminescence signals were recorded and utilized to calculate the percent inhibition values based on DMSO and background controls.
For dose-response analysis, percent inhibition data were plotted vs. compound concentrations, and IC50 values were determined from a 4-parameter robust fit model with the Prism software. Results may also be expressed as the negative logarithm of the IC50 value, pIC50.

For `CCc1cc(O)c(F)cc1-c1cc(F)c2c(-c3nc4c([nH]3)CCN(C(=O)CN3CCOCC3)C4)n[nH]c2c1` [Compound 1, 1-(2-(6-(2-ethyl-5-fluoro-4-hydroxyphenyl)-4-fluoro-1H-indazol-3-yl)-1,4,6,7-tetrahydro-5H-imidazo[4,5-c]pyridin-5-yl)-2-morpholinoethan-1-one], which “inhibition of IL-6-induced pSTAT3 in retina/choroid tissues” value (IL-6 induced pSTAT3) is on record?
Its value is 116%.

What about the inhibition at 1 µM (SLK) of the same compound?
The inhibition at 1 µM was 100%.

What about the inhibition at 1 µM (SRC) of the same compound?
The inhibition at 1 µM was 93%.

What about the inhibition at 1 µM (ALK) of the same compound?
Its inhibition at 1 µM is 75%.

And the inhibition at 1 µM (GSK3B)?
Its inhibition at 1 µM is 31%.

What about the inhibition at 1 µM (PLK4) of the same compound?
Its inhibition at 1 µM is 58%.

What about the IC50 ([1]; Assay 2, BEAS-2B cells, read-out: IC50 for inhibition of IL-13) of the same compound?
Its IC50 is 13 nM.

What about the IC50 ([1]; BEAS-2B cells, read-out: pIC50, inhibition of IL-13 induced STAT6 phosphorylation (converted)) of the same compound?
Its IC50 is 12.6 nM.
